Source: US20250275964A1, “METHODS OF INHIBITING LIVER-TYPE GLUTAMINASE, GLS2” (CORNELL UNIVERSITY, priority 2019, published 2025)

Columns and labels:
[1] = tested on: glutaminase activity in mitochondria isolated from breast cancer cell lines; assay: Mitochondrial glutaminase activity assay; type: biochemical, human
Description: Breast cancer cells were fractionated into cytosolic, mitochondrial, and nuclear components via partial lysis and centrifugation using the Qproteome Mitochondria Isolation Kit (Qiagen). For all samples, a portion of the starting material (i.e. whole cells) was retained for comparison with the isolated fractions. When cellular fractions were to be analyzed only by western blot, a single 10 cm dish of exponentially growing cells was used. When mitochondria were isolated for glutaminase assays, two 15 cm dishes of exponentially growing cells were used.
A two-reaction protocol was used to measure mitochondrial glutaminase activity. […] The reaction was then quenched by addition of 10 μl of 2.4 M HCl, and samples placed on ice. Next, 20 μl of quenched Reaction Mix 1 was added to 200 μl of Reaction Mix 2 (1 unit bovine liver glutamate dehydrogenase (Sigma-Aldrich), 80 mM Tri-HCl pH 9.4, 200 mM hydrazine, 0.25 mM ADP, 2 mM NAD) and samples were incubated for 1 hour at room temperature. The absorbance at 340 nm was then measured against a matched sample in which heat-inactivated mitochondria (immersed in boiling water for 5 minutes) were used. A standard curve was prepared using given concentrations of glutamate in Reaction Mix 2, allowing the amount of glutamate produced in Reaction 1 to be determined.

[2] = tested on: breast cancer cell lines; assay: 6-day cell proliferation assay, collection of breast cancer cell lines; type: cell-based, human
Procedure: Human breast cancer cell lines MCF7, BT-474, T-47D, MDA-MB-453, MDA-MB-231, Hs 578T, HCC38, SK-BR-3, and DU4475 were purchased from the American Type Culture Collection (ATCC) and no additional cell authentication was performed. The TSE human breast cancer cell line was supplied by Dr. Steven Abcouwer (University of Michigan). All breast cancer cells were cultured at 37° C. under a 5% CO2 atmosphere in RPMI 1640 medium containing 2 mM glutamine (Gibco) and supplemented with 10% fetal bovine serum (FBS) (Gibco). The 293T cell line (ATCC) used for generating lentivirus particles was cultured as above but using DMEM, high glucose (Gibco).
Culture medium was added to 12-well plates (1 ml/well) and wells were seeded with cells at Day 0 as follows. MCF7, T-47D, BT-474, HCC38 cells: […] cells/well. MDA-MB-453 and MDA-MB-231 cells: 1×10^4 cells/well. TSE and Hs 578T cells: 0.3×10^4 cells/well. After 16 hours, culture medium was replaced with fresh medium supplemented with appropriate concentrations of inhibitors and was subsequently replaced every 48 hours. On Day 6 cells were trypsinized and suspended in an appropriate volume of culture medium, and the total number of cells per well was determined using a hemocytometer or a TC20 Automated Cell Counter (Bio-Rad).

[3] = target: T1, recombinant full-length human GLS (GAC splice variant) (Homo sapiens, UniProt O94925); conditions: previously reported (Wang et al. 2010); cited from earlier work
T1 construct: processed forms of human GAC (residues 72 to 598); inferred from pQE80 vector and Ni-NTA/imidazole purification; made in house; host or cells: E. coli BL21(DE3)

[4] = tested on: primary human mammary epithelial cells or fibroblasts; conditions: Wang et al. 2010; cited from earlier work

T1 sequence (O94925 72-598 isoform O94925-3): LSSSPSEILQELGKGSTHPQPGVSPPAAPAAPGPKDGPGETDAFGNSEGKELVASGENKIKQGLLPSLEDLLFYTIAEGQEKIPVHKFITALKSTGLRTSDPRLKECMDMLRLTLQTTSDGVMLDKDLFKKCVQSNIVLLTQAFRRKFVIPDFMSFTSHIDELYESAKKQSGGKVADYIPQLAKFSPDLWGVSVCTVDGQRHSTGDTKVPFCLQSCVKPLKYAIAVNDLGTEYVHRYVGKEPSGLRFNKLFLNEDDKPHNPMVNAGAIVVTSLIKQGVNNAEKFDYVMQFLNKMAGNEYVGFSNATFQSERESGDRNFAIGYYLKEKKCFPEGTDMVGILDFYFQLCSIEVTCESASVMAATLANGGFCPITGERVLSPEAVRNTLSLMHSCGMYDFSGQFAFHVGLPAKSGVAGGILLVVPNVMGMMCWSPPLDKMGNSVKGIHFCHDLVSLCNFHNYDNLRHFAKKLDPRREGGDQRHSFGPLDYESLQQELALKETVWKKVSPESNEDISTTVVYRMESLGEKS

Compound	inhibition of mitochondrial glutaminase activity ([1]; mitochondria from MDA-MB-453 cells)	inhibition of mitochondrial glutaminase activity ([1]; mitochondria from basal-subtype cells, 10 μM)	inhibition of mitochondrial glutaminase activity ([1]; mitochondria from luminal-subtype breast cancer cells)	EC50 ([2]; breast cancer cells, 6 days) [µM]	maximal inhibition ([2]; cells with highest expression of GLS)	binding and inhibition of GLS splice variant GAC [3]	growth of primary human mammary epithelial cells or fibroblasts [4]
O=C(Cc1ccccc1)Nc1nnc(CCSCCc2nnc(NC(=O)Cc3ccccc3)s2)s1 [BPTES]	no effect on activity	almost completely abolished	only partially inhibited				
CN(C)c1ccc(C2Nc3ccc4ccccc4c3C3=C2C(=O)CC(C)(C)C3)cc1Br (stereo not shown) [Compound 968]				3 to 5	70-75%	binds and inhibits	does not affect the growth
